Experimental data published in patent US9072778B2, “Treatment regimen for N-MYC, c-MYC, and L-MYC amplified and overexpressed tumors” (UNIVERSITY OF HAWAII, priority 2005, dated 2015).

Columns and labels:
ODC = target: T1, ODC (Homo sapiens, UniProt P11926); test: ODC enzyme activity in lysates of inhibitor-treated NB cells; assay type: cell-based; details: DFMO = 5 mM, SAM486A = 10 μM, mean ± SD
T1 construct: enzyme activities were measured in cell lysates; endogenous in cells
T1 sequence (P11926 1-461): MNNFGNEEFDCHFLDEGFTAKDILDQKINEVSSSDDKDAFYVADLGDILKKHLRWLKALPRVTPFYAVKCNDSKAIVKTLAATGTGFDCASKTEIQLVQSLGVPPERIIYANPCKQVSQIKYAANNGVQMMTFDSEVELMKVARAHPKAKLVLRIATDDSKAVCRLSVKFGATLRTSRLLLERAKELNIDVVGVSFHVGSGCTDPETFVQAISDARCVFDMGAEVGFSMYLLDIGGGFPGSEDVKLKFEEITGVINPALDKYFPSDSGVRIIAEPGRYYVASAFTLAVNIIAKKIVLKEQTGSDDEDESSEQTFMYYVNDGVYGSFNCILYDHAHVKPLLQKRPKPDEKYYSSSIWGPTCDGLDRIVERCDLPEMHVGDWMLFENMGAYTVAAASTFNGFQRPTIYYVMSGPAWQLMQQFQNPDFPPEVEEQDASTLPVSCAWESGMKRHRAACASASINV
Experimental: (§1) Human NB cell lines were provided by Dr. Robert Seeger (LAN-1; University of California, Los Angeles, Calif.), Dr. Nai-Kong Cheung (NMB-7; Memorial Sloan-Kettering Cancer Center, NY), and the American Type Culture Collection (SK-N-SH; ATCC, Manassas, Va.). Cells were maintained in RPMI 1640 (Biosource, Rockeville, Md.) containing 10% heat-inactivated fetal bovine serum (FBS) (Invitrogen, Carlsbad, Calif.), penicillin (100 IU/ml) and streptomycin (100 μg/ml). If cells were treated with exogenous Spd, 1 mM of aminoguanidine was included as an inhibitor of serum polyamine oxidation. […] For growth and proliferation inhibition, polyamine pool, and cell cycle studies, 10 μM Spd was added together with inhibitors, and cells were assayed on days 2 and/or 3.
ODC and AdoMetDC enzyme activities were determined using a standard assay known in the art. In brief, NB cells were washed twice with ice-cold PBS and harvested in 50 mM sodium phosphate buffer (pH 7.2), 0.1 mM EDTA, 2.5 mM DTT, supplemented with 1× protease inhibitor cocktail (Roche Molecular Biochemicals, Indianapolis, Ind.). For the measurement of AdoMetDC activity, cells were harvested in the above buffer supplemented with 2.5 mM Put. Cells were lysed by three freeze/thaw cycles and cell lysates were prepared by centrifugation for 20 minutes at 14,000 rpm and 4° C. ODC activity was measured in a reaction mixture that contained 20 μM L-[1-^14C]ornithine (47.70 mCi/mmol; NEN Life Science Products, Boston, Mass.). AdoMetDC activity was assayed in a reaction mixture that contained 8.2 μM S-adenosyl-L-[carboxy-^14C]methionine (58.0-61.0 mCi/mmol; Amersham Biosciences, Piscataway, N.J.) and 140.1 μM cold S-adenosylmethionine. […] Untreated or SAM486A-treated LAN-1 extracts were assayed for AdoMetDC activity after multiple rounds of sequential dilution with harvest buffer followed by concentration of the extract (Centricon YM-10, Millipore Corporation, Bedford, Mass.) to remove the inhibitor.

NMB-7 cells = test: Cell cycle phase distribution (propidium iodide), NMB-7; assay type: cell-based, human; details: DFMO = 5 mM, SAM486A = 10 μM, Spd = 10 μM, mean ± SD
Source text: This profile, which is typical for cell cycle arrest at G1, was enhanced by the combination of both inhibitors, with the majority of cells in G1 (˜71-73%), a reduced number of cells in S phase (˜20-28%), and a small portion in G2/M (˜2-7%).
as §1

LAN-1 cells = test: Polyamine pool analysis in inhibitor-treated LAN-1 cells; assay type: cell-based, human; details: DFMO = 5 mM, SAM486A = 10 μM, Spd = 10 μM
Experimental: Combined inhibition of both enzymes decreased polyamine pools to various degrees, and exogenous supplementation of Spd (10 μM) to cell cultures led to a substantial increase in Spd. […] In untreated control cells, the levels of Put and Spd decreased during exponential cell growth and proliferation (day 0 to day 3), which is also consistent with a decrease in ODC and AdoMetDC enzyme activities (FIGS. 3d and 3e). Spm levels decreased in untreated LAN-1 cells and remained the same in NMB-7 cells (Table 1).
as §1
Intracellular polyamines were extracted from cell pellets by a method known in the art. In brief, cells were washed and centrifuged. After sonication and centrifugation, 250 μl of supernatant, 100 μl of saturated sodium carbonate, and 300 μl of 25 mg/ml dansyl chloride (5-dimethylamino-naphthalene-1-sulfonyl chloride) (Fluka, Switzerland) were mixed and analyzed via reverse phase HPLC using a C18 reverse-phase analytical column (Waters, Milford, Mass.). The effluent from the column was monitored at 510 nm (excitation at 330 nm). Polyamine levels were determined using appropriate standards. The samples were normalized in 0.2 N sodium hydroxide and the amount of total protein per sample was measured using the Bradford assay (70). Polyamine levels are expressed as nmol per mg of total cellular protein.

Structure (SMILES) | Specific enzyme activity ODC (ODC; LAN-1, 2 days after treatment) | Specific enzyme activity ODC (ODC; NMB-7, 2 days after treatment) | Cell cycle G1 (NMB-7 cells; NMB-7, day 2) | Cell cycle G2/M (NMB-7 cells; NMB-7, day 2) | Cell cycle S (NMB-7 cells; NMB-7, day 2) | Cell cycle G1 (NMB-7 cells; NMB-7, day 3) | Cell cycle G2/M (NMB-7 cells; NMB-7, day 3) | Cell cycle S (NMB-7 cells; NMB-7, day 3) | Polyamine pools PUT (LAN-1 cells; LAN-1, Day 2) | Polyamine pools SPD (LAN-1 cells; LAN-1, Day 2) | Polyamine pools SPM (LAN-1 cells; LAN-1, Day 2) | Polyamine pools PUT (LAN-1 cells; LAN-1, Day 3) | Polyamine pools SPD (LAN-1 cells; LAN-1, Day 3) | Polyamine pools SPM (LAN-1 cells; LAN-1, Day 3)
NCCC[C@](N)(C(=O)O)C(F)F [DFMO, α-difluoromethylornithine] | 26 ± 2 % OF CONTROL | 25 ± 8 % OF CONTROL | 60.3 ± 3.9 % TOTAL CELLS | 8.4 ± 2.9 % TOTAL CELLS | 31.3 ± 6.5 % TOTAL CELLS | 58.8 ± 2.6 % TOTAL CELLS | 10.2 ± 3.9 % TOTAL CELLS | 31.0 ± 6.3 % TOTAL CELLS | 0.3 NMOL/MG TOTAL PROTEIN | 2.2 NMOL/MG TOTAL PROTEIN | 8.7 NMOL/MG TOTAL PROTEIN | 0.0 NMOL/MG TOTAL PROTEIN | 1.9 NMOL/MG TOTAL PROTEIN | 8.1 NMOL/MG TOTAL PROTEIN
N=C(N)c1cccc2c1CC/C2=N\N=C(N)N [SAM486A, 4-amidinoindan-1-one 2′-amidinohydrazone] | 240 ± 27 % OF CONTROL | 251 ± 42 % OF CONTROL | 54.1 ± 4.3 % TOTAL CELLS | 9.3 ± 3.2 % TOTAL CELLS | 36.6 ± 6.0 % TOTAL CELLS | 56.4 ± 6.5 % TOTAL CELLS | 8.5 ± 1.4 % TOTAL CELLS | 35.2 ± 7.0 % TOTAL CELLS | 48.5 NMOL/MG TOTAL PROTEIN | 5.5 NMOL/MG TOTAL PROTEIN | 4.2 NMOL/MG TOTAL PROTEIN | 43.7 NMOL/MG TOTAL PROTEIN | 5.0 NMOL/MG TOTAL PROTEIN | 3.5 NMOL/MG TOTAL PROTEIN
